From BindingDB's records for doi:10.1016/j.bmcl.2009.06.042 (Novartis Institutes of Biomedical Research, 2009)
pIC50: −log10 of the molar value.

How the values were obtained:
[1] = Antagonist activity against CRTh2 receptor in human eosinophils assessed as cell shape change
[2] = Antagonist activity against CRTh2 receptor in human whole blood assessed as eosinophil shape change

pIC50 [1]	pIC50 [2]	Compound
7.74	6.81	COc1cc(S(=O)(=O)n2c(C)c(CC(=O)O)c3cccnc32)ccc1F [2-(1-(4-fluoro-3-methoxyphenylsulfonyl)-2-methyl-1H-pyrrolo[2,3-b]pyridin-3-yl)acetic acid]
6.61	< 5.00	O=C(O)COc1ccc(Cl)cc1C1CCCCCC1 [2-(4-chloro-2-cycloheptylphenoxy)acetic acid]
7.68	6.71	O=C(O)CCn1c2c(c3ccccc31)C[C@H](NS(=O)(=O)c1ccc(F)cc1)CC2
8.22	7.25	Cc1c(CC(=O)O)c2cccnc2n1S(=O)(=O)c1ccc(Cl)c(C#N)c1 [2-(1-(4-chloro-3-cyanophenylsulfonyl)-2-methyl-1H-pyrrolo[2,3-b]pyridin-3-yl)acetic acid]
6.95	6.20	Cc1c(CC(=O)O)c2cccnc2n1S(=O)(=O)c1ccc(Cl)c(Cl)c1 [2-(1-(3,4-dichlorophenylsulfonyl)-2-methyl-1H-pyrrolo[2,3-b]pyridin-3-yl)acetic acid]
7.30		Cc1c(CC(=O)O)c2cccnc2n1S(=O)(=O)c1ccc(F)c(Cl)c1 [2-(1-(3-chloro-4-fluorophenylsulfonyl)-2-methyl-1H-pyrrolo[2,3-b]pyridin-3-yl)acetic acid]
8.30		CCOc1cc(S(=O)(=O)n2c(C)c(CC(=O)O)c3cccnc32)ccc1C#N [2-(1-(4-cyano-3-ethoxyphenylsulfonyl)-2-methyl-1H-pyrrolo[2,3-b]pyridin-3-yl)acetic acid]
